Experimental data as given in patent US7744910B2, “Compounds and compositions for delivering active agents” (Emisphere Technologies, Inc., priority 1998, dated 2010).
“And” between values parts separate entries of the source, which are not always exact repeats. Identical values can stand only once. Like-named read-outs stand apart in the source and are kept apart here.

Legend:
[1] = Oral delivery of rhGH in rats; serum rhGH by immunoassay; assay type: in vivo, Sprague-Dawley rats
Method: Oral gavage (PO) dosing solutions of delivery agent compound and rhGH in phosphate buffer were prepared. […] The final dosing solutions were prepared by mixing the compound solution with an rhGH stock solution (typically having a concentration of 15 mg rhGH/ml) and diluting to the desired volume (usually 3.0 ml).
The rats were administered 1 ml/kg of the dosing solution. Blood samples were collected serially from the tail artery for determination of serum rhGH concentrations. Serum rhGH concentrations were quantified by an rhGH immunoassay test kit (Kit # KIF4015 from Genzyme Corporation Inc., Cambridge, Mass.).

[2] = Intracolonic delivery of heparin in rats; heparin activity by activated partial thromboplastin time (APTT); assay type: in vivo, Sprague-Dawley rats; conditions: IC
Method: Intracolonic dosing (IC) compositions containing delivery agent compound and heparin sodium USP in 25% aqueous propylene glycol were prepared by mixing. […] Typically, compound and heparin powders were mixed, 25% aqueous propylene glycol was added, NaOH solution was added, the contents sonicated, then diluted to a volume of 3.0. pH was checked and adjusted if necessary to pH=7-8.
The dosing solutions were administered to fasted rats at a volume dose of 1 ml/kg. Blood samples were collected by cardiac puncture following the administration of ketamine (44 mg/kg). Heparin activity was determined utilizing the activated partial thromboplastin time (APTT) according to the method of Henry, J. B., Clinical Diagnosis and Management by Laboratory Methods; Philadelphia, Pa.; W. B. Saunders (1979).

[3] = Oral delivery of salmon calcitonin (sCT) in rats; serum sCT by EIA; conditions: compound dose 50 mg/kg, sCT dose 25 μg/kg, modified EIA protocol
Method: (§1) Oral dosing (PO) compositions of delivery agent compound and salmon calcitonin (sCT) in water were prepared by mixing. 450 mg of compound was added to 2.0 ml of water. Either the sodium salt of the compound was used or the free acid was converted to the sodium salt by stirring the resultant solution and adding one equivalent of sodium hydroxide (1.0 N) and diluting with water. 90 μg sCT was added to the solution. Water was then added to bring the total volume to 3.0 ml. […] (For compounds 118 and 123, the solutions were diluted to 6.0 ml and the volume dose was doubled.) The total sCT concentration was 30 μg/ml.
(§2) Male Sprague-Dawley rats weighing between 200-25.0 g were fasted for 24 hours and were administered ketamine (44 mg/kg) and chlorpromazine (1.5 mg/kg) 15 minutes prior to dosing. The rats were administered 1 ml/kg of dosing solution (2 ml/kg for compounds 118 and 123). Blood samples were collected serially from the tail artery. Serum sCT was determined by testing with an EIA kit (Kit # EIAS-6003 from Peninsula Laboratories, Inc., San Carlos, Calif.). The standard protocol from the kit was modified for compounds 104 and 105 as follows: incubated with 50 μl peptide antibody for 2 hours with shaking in the dark, washed the plate, added serum and biotinylated peptide and diluted with 4 ml buffer, and shook overnight in the dark.

[4] = rat, in vivo, po, 150 mg/kg
Method: as §1, §2

[5] = PTH delivery in rats, oral (PO) and intracolonic (IC); serum PTH by radioimmunoassay; assay type: in vivo, Sprague-Dawley rats
Method: Oral gavage (PO) or intracolonic (IC) dosing solutions of delivery agent compound and parathyroid hormone residues 1-34 (PTH) (residues 1-38 for the solution with compound 103) were prepared. […] The final dosing solutions were prepared by mixing the compound solution with a PTH stock solution (typically having a concentration of 5 mg PTH/ml) and diluting to the desired volume (usually 3.0 ml).
The rats were administered one of the dosing solutions at 1 ml/kg for PO or 0.5 ml/kg for IC. Blood samples were collected serially from the tail artery for serum determination of PTH concentration. Serum PTH concentrations were quantified by a PTH radioimmunoassay kit (Kit # RIK 6101 from Peninsula Laboratories, Inc., San Carlos, Calif.).

[6] = compound dose 300 mg/kg, rhGH dose 6 mg/kg
[7] = compound dose 50 mg/kg, heparin dose 25 mg/kg
[8] = compound dose 200 mg/kg, rhGH dose 3 mg/kg
[9] = PO, compound dose 100 mg/kg, PTH (1-34) dose 200 μg/kg
[10] = PO, compound dose 300 mg/kg, PTH (1-34) dose 100 μg/kg

SMILES	Mean Peak APTT [2, 7]	further results
Nc1ccc(Cl)cc1C(=O)NCCCCCCCC(=O)O [Compound 40]		Mean Peak Serum [rhGH] [1, 6]: 42 ± 80 ng/mL
Cc1cc(C)c(O)c(C(=O)Nc2ccc(CCCC(=O)O)cc2)c1 [Compound 14]	54 ± 21 s	
O=C(O)CCCNC(=O)c1cc(Cl)ccc1O [Compound 105]		Serum sCT (pg/ml) ± SD (SE) [3]: 583 ± 140 pg/mL
O=C(O)CCCCCCCCC(=O)Nc1cc(Cl)ccc1O [Compound 123]		Serum sCT (pg/ml) ± SD (SE) [4]: 0 pg/mL
O=C(O)CCCCCCCNC(=O)c1cc(F)ccc1O [Compound 54]	124 ± 137 s	Mean Peak Serum [rhGH] [1, 8]: 48 ± 33 ng/mL
O=C(O)CCCCCCCCCCCNC(=O)c1ccccc1F [Compound 97]	33 ± 10 s	
O=C(O)CCCCCCCNC(=O)Cc1ccc(O)cc1 [Compound 46]	52 ± 34 s	
O=C(O)CCCCCCCNC(=O)c1cc(Cl)cc(Br)c1O [Compound 48]	75 ± 18 s	
Cc1ccccc1C(=O)NCCCCCCCCCCCC(=O)O [Compound 95]	30 ± 2 s	
COc1ccccc1C(=O)NCCCCCCCCCCCC(=O)O [Compound 96]	72 ± 63 s	
O=C(O)CCCc1ccc(Nc2cc(=O)oc3ccccc23)cc1 [Compound 72]	50 ± 18 s	
O=C(O)CCCCCCCC(=O)Nc1cc(Cl)ccc1O [Compound 122]		Serum sCT (pg/ml) ± SD (SE) [4]: 187 ± 79 (36) pg/ml
COc1ccccc1C(=O)NCCCCCCCCCC(=O)O [Compound 94]	50 ± 28 s	Mean Peak Serum PTH [5, 9]: 17 ± 38 pg/mL
Cc1ccccc1C(=O)NCCCCCC(=O)O [Compound 101]	26 ± 5 s	
O=C(O)CCCCCNC(=O)c1ccccc1 [Compound 89]	33 ± 7 s	Mean Peak Serum PTH [5, 9]: 27 ± 61 pg/mL
O=C(O)CNC(=O)c1ccccc1 [Compound 110]	26.5 ± 4.7 s and 23.4 ± 0.7 s	
O=C(O)CCCCCC(=O)Nc1cc(Cl)ccc1O [Compound 120]	42 ± 34 s	
O=C(O)CCCCCCCNC(=O)c1c(O)cccc1Cl [Compound 51]	111 ± 49 s	
O=C(O)CCc1ccc(F)c(NC(=O)c2ccccc2O)c1 [Compound 60]	71 ± 43 s	
COc1ccccc1C(=O)NCCCC(=O)O [Compound 90]	26 ± 7 s	Mean Peak Serum PTH [5, 9]: 14 ± 21 pg/mL
COc1ccc(C(=O)NCCCC(=O)O)c(O)c1 [Compound 106]	48 ± 16.9 s and 27.7 ± 12.6 s	
O=C(O)CCCCCCCCCNC(=O)c1ccccc1F [Compound 85]	27 ± 4 s	
O=C(O)CCCCCCCCCNC(=O)c1ccccc1 [Compound 100]	31 ± 8 s	
O=C(O)CNC(=O)c1ccccc1F [Compound 113]	20.4 s	

SMILES	Mean Peak APTT [2, 7]	further results
COc1ccccc1C(=O)NCC(=O)O [Compound 112]	28.7 ± 11.5 s	
O=C(O)CCCCCNC(=O)c1ccccc1F [Compound 86]	24 ± 1 s and 31 ± 11 s	Mean Peak Serum PTH [5, 9]: 0 pg/mL
O=C(O)CCCCCCCNC(=O)c1cc(Cl)cc(F)c1O [Compound 45]		Mean Peak Serum [rhGH] [1, 8]: 49 ± 56 ng/mL
O=C(O)CCCNC(=O)c1ccccc1F [Compound 92]	22 ± 2 s	Mean Peak Serum PTH [5, 9]: 303 ± 427 pg/mL
CNc1ccccc1C(=O)Nc1ccc(CCCC(=O)O)cc1 [Compound 10]		Mean Peak Serum PTH [5, 10]: 420 ± 335 pg/mL; Mean Peak Serum [rhGH] [1, 8]: 43 ± 65 ng/mL
COc1ccc(C(=O)NCCCCCCCCCC(=O)O)c(O)c1 [Compound 108]	72.9 ± 28.9 s	
Cc1ccccc1C(=O)NCCCC(=O)O [Compound 91]	24 ± 4 s	Mean Peak Serum PTH [5, 9]: 5 ± 12 pg/mL
Cc1ccccc1C(=O)NCC(=O)O [Compound 111]	24.4 ± 3.3 s	
O=C(O)CCCCCCCCCCCNC(=O)c1ccccc1 [Compound 98]	25 ± 5 s	
Nc1ccc(F)cc1C(=O)Nc1ccc(CCCC(=O)O)cc1 [Compound 3]		Mean Peak Serum PTH [5, 10]: 222 ± 155 pg/mL; Mean Peak Serum [rhGH] [1, 6]: 72 ± 45 ng/mL
O=C(O)CCCCCCCNC(=O)c1cc(F)cc(F)c1O [Compound 41]	41 ± 26 s	
O=C(O)CCNC(=O)c1ccccc1O [Compound 103]	21.9 ± 2.0 s	Mean Peak Serum PTH ([5]; IC, compound dose 100 mg/kg, PTH residues 1-38 dose 25 μg/kg): 38.53 ± 30.9 pg/mL
CNc1ccccc1C(=O)Nc1ccc(CCC(=O)O)cc1 [Compound 7]	59 ± 41 s	
O=C(O)CCCCCCCCCCNC(=O)c1ccccc1F [Compound 88]	59 ± 47 s	
Cc1cc(F)cc(C(=O)NCCCCCCCC(=O)O)c1O [Compound 56]	91 ± 75 s	
O=C(O)CCCNC(=O)c1ccccc1 [Compound 93]		Mean Peak Serum PTH [5, 9]: 343 ± 155 pg/mL; Mean Peak APTT ([2]; compound dose 25 mg/kg, heparin dose 50 mg/kg): 22 ± 0 s
COc1ccc(C(=O)NCC(=O)O)c(O)c1 [Compound 102]	24.8 ± 0.9 s and 24.7 ± 6.5 s	
O=C(O)CCCC(=O)Nc1cc(Cl)ccc1O [Compound 119]		Serum sCT (pg/ml) ± SD (SE) [4]: 95 ± 119 (53) pg/ml
Cc1ccccc1C(=O)NCCCCCCCCCC(=O)O [Compound 99]	34 ± 7 s	
COc1ccc(C(=O)NCCCCCCCCCCCC(=O)O)c(O)c1 [Compound 109]	24.2 ± 1.7 s	
COc1ccc(C(=O)Nc2ccc(CCCC(=O)O)cc2)c(O)c1 [Compound 104]		Mean Peak Serum PTH [5, 9]: 286.35 ± 191.58 pg/mL; Serum sCT (pg/ml) ± SD (SE) [3]: 287 ± 104 pg/mL
O=C(O)CCCCCCCCCCNC(=O)c1ccccc1 [Compound 87]	21 ± 1 s and 23 ± 3 s	
COc1ccc(C(=O)NCCCCCC(=O)O)c(O)c1 [Compound 107]	26.2 ± 6.1 s	
Cc1cc(Cl)cc(C(=O)NCCCCCCCC(=O)O)c1O [Compound 55]	125 ± 195 s	
